SMILES strings stand for the structures. Bounds are passed on as bounds.

For the first test, the system named is Aβ38, Aβ40 and Aβ42 in CSF. The experiment in a line: Efficacy study in monkeys: Aβ biomarkers in CSF after single oral administration. The format is in vivo, cynomolgus monkeys. The conditions noted are these: Monkey CSF. The text has this: Certain isoforms of amyloid β peptide (AR), such as Aβ338, Aβ340 and Aβ342 have been established as relevant biomarkers that reflect BACE1 activity and have been exploited to establish translational relationships between different cellular assays and animal models. In this efficacy study, mammals were used to assess amyloid β reduction with BACE1 inhibitors. In a clinical setting, plasma and cerebrospinal fluid (CSF) are the accessible compartments to measure soluble amyloid β levels to determine target profile. It is important to analyze plasma and CSF levels which relate to changes in brain amyloid β levels. The concentration of BACE1 inhibitors and their time-dependent reduction of plasma, CSF and brain amyloid β levels were investigated following intravenous and oral administrations of BACE1 inhibitors.
a (ii). Formulation for PO administration: 5% (v/v) PEG400+95% (v/v) of 1% (w/v) methyl cellulose in water (the viscosity of methyl cellulose is 20 g/L, 20° C., cPa·s: 350.0-550.0). The test article solutions were prepared by dissolving the compound in PEG400 followed by the addition of the aqueous solution to the final volume.
For the oral formulation of a BACE1 inhibitor in the monkey efficacy study (at the dose of 20 mg/kg with the concentration of 2 mg/ml)
1) Weighed […] of the selected BACE1 inhibitors into a clean vial;
2) Added 2.826 mL of PEG400 into the tube containing the compound. Then vortexed for 5 min and sonicated for 45 min;
3) Added 53.688 mL of 1% MC in water into the tube containing the compound. Then vortexed for 4 min and sonicated for 4 min; and
4) Adjusted the pH to the physiological value by using 1N NaOH.
Several studies have shown that drug transport into the CNS may be more similar between humans and primates. […] To explore the mechanism of BACE1 compounds, the compounds were tested using this in vivo study. […] The monkey Aβ reduction study usually takes 3 weeks.
The time-course profiles of neurodegeneration biomarkers were determined following single oral administration of the selected BACE1 inhibitors to male cynomolgus monkeys. Blood samples were collected from all animals via the saphenous vein or cephalic vein at 0 (pre-dose), 0.5, 1, 3, 6, 8, 12 and 24 hr post-dose into test tubes containing potassium ethylenediaminotetraacetic acid (K2EDTA). CSF samples were collected via a pre-implanted cannula at the foramina occipital magnum site at 0 (pre-dose), 3, 6, 12 and 24 hr post-dose.
Plasma was separated from the blood by centrifugation at 4° C. and stored at −80° C. until analyzing. The biomarkers of Aβ38, Aβ40 and Aβ42 in CSF were quantified using Meso Scale Discovery (MSD) multiplex electrochemiluminescence immunoassay according to the manufacturer's instructions. The plates were first blocked with 150 μL of Diluent 35 for 1 hour at room temperature with constant shaking at 600 rpm. After washing three times with 200 μL washing buffer, 25 μL of 1× detection antibody solution, plus Aβ40 blocker, 25 μL of seven standards, zero standard and four-fold diluted samples were added to the assay plate. The plate was incubated for 2 hours at room temperature, with constant shaking at 600 rpm. Upon finishing, the plate was washed three times with washing buffer and read in a Sector Imager 6000 (MSD) immediately after addition of 150 μL of 2× Read Buffer T. Aβ concentrations were calculated with reference to the standard curves of each individual peptide and expressed as pg/mL using SoftMax Pro GXP 5.4.4.
In the case of `CC#Cc1ccc2sc3cc(F)c([C@]4(C)CC(=O)N(C)C(=N)N4)cc3c2c1` [Example 72, (S)-6-(3-Fluoro-8-(prop-1-yn-1-yl)dibenzo[b,d]thiophen-2-yl)-2-imino-3,6-dimethyltetrahydropyrimidin-4(1H)-one], the “% of maximum Aβ40 inhibition over 24 hours” value (“% of maximum Aβ40 inhibition” below) turned out to be 33.7%.

Regarding `CC#Cc1cc2c(cc1F)sc1ccc([C@]3(C)CS(=O)(=O)C(C)(C)C(=N)N3)cc12` [Example 128, (R)-5-(7-Fluoro-8-(prop-1-yn-1-yl)dibenzo[b,d]thiophen-2-yl)-3-imino-2,2,5-trimethylthiomorpholine 1,1-dioxide], the “% of maximum Aβ40 inhibition” value worked out at 49.1%.

On to `CC#Cc1ccc2sc3ccc([C@]4(C)CS(=O)(=O)C5(CC5)C(=N)N4)cc3c2c1` [Example 136, (R)-8-Imino-6-methyl-6-(8-(prop-1-yn-1-yl)dibenzo[b,d]thiophen-2-yl)-4-thia-7-azaspiro[2.5]octane 4,4-dioxide], for which the “% of maximum Aβ40 inhibition” value is 44.5%.

Another test deals with BACE1 (recombinant β-secretase enzyme) (Homo sapiens (Human), UniProt P56817). The experiment in a line: AnaSpec BACE1 fluorescent assay (beta-secretase activity assay).
BACE1 (recombinant β-secretase enzyme), sequence (P56817 46-501): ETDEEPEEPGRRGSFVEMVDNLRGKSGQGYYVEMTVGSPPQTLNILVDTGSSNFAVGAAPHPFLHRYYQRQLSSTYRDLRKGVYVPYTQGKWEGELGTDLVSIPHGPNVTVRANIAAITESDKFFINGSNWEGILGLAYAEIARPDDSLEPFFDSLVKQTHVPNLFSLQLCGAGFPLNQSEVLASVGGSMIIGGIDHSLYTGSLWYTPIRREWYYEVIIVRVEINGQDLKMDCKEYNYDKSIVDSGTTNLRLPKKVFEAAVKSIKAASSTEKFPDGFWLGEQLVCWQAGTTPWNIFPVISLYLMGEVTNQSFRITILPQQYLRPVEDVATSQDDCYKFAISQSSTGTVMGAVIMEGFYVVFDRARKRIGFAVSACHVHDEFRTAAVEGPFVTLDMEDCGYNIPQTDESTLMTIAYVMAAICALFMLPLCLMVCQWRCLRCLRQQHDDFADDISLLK
Details: not given
Format: biochemical. The protocol:
A BACE1 activity assay kit from AnaSpec (Fremont, Calif.) was used to determine the potency of the selected BACE1 inhibitors by AnaSpec BACE1 fluorescent assay. The recombinant β-secretase enzyme was diluted 1:200 in 1× assay buffer (1 part of 1× assay buffer and 1 part of TBS containing 0.1% Tween 20). The enzyme was added in a volume of 40 μl to each well of a black 96-well micro plate.
The BACE1 inhibitors were serially diluted into DMSO from their 10 mM stock concentrations in DMSO. The serially diluted inhibitors were diluted 1:100 into 1× assay buffer in a 96-well polypropylene plate (assay dilution plate). The final concentration of the BACE1 inhibitor tested was 300 nM, 100 nM, 30 nM, 10 nM, 3 nM, 1 nM 0.3 nM, and 0.00 nM. Dose responses for inhibitors were run in duplicate.
A volume of 10 μl of the inhibitor from the assay dilution plate, a control inhibitor LY2886721 or inhibitor vehicle was then added to each well of the black 96-well micro plate containing BACE1.
To each well of the black 96-well micro plate, 50 μl of the β-secretase substrate (Hylite Fluor 488) diluted 1:100 using assay buffer was added. The reagents were mixed gently and the assay plate was placed into a POLARstar fluorescent plate reader with excitation wavelength set at 485 nm and the emission wavelength set at 520 nm. The plate reader was set to take readings every 5 minutes for up to 30 minutes or a 30 minute endpoint reading was used.
An appropriate integrated first-order rate equation was used to fit the data accumulated over a 30-40 minute collection period.
Consider `CC#Cc1ccc2sc3cc(F)c([C@]4(C)CC(=O)N(C)C(=N)N4)cc3c2c1` [Example 72, (S)-6-(3-Fluoro-8-(prop-1-yn-1-yl)dibenzo[b,d]thiophen-2-yl)-2-imino-3,6-dimethyltetrahydropyrimidin-4(1H)-one], for which the IC50 (commonly the concentration that gives 50% inhibition) worked out at 0.021 µM.

`CC#Cc1ccc2c(c1)-c1cc([C@]3(C)CC(=O)N(C)C(=N)N3)ccc1S2(=O)=O` [Example 79, (S)-2-Amino-6-(5,5-dioxido-8-(prop-1-yn-1-yl)dibenzo[b,d]thiophen-2-yl)-3,6-dimethyl-5,6-dihydropyrimidin-4(3H)-one]: the half-maximal inhibitory concentration (IC50) was determined as 0.087 µM.

As to `CC#Cc1ccc2c(c1)c1cc([C@]3(C)CC(=O)N(C)C(=N)N3)ccc1[s+]2[O-]` (stereo partly drawn) [Example 80, (6S)-2-Amino-3,6-dimethyl-6-(5-oxido-8-(prop-1-yn-1-yl)dibenzo[b,d]thiophen-2-yl)-5,6-dihydropyrimidin-4(3H)-one], the IC50 is 0.048 µM.

In the case of `CC#Cc1ccc2c(c1)-c1cc([C@]3(C)CC(=O)N(C)C(=N)N3)ccc1C2(C)C` [Example 81, (S)-6-(9,9-Dimethyl-6-(prop-1-yn-1-yl)-9H-fluoren-3-yl)-2-imino-3,6-dimethyl-tetrahydropyrimidin-4(1H)-one], the IC50 is above 0.3 µM.

Consider `CC#Cc1ccc2c(c1)-c1cc([C@]3(C)CC(=O)N(C)C(=N)N3)ccc1C2(F)F` [Example 82, (S)-6-(9,9-Difluoro-6-(prop-1-yn-1-yl)-9H-fluoren-3-yl)-2-imino-3,6-dimethyltetrahydropyrimidin-4(1H)-one], for which the IC50 is above 0.3 µM.

As to `CN1C(=N)N[C@](C)(c2ccc3sc4ccc(C#N)cc4c3c2)CC1=O` [Example 85, (S)-8-(2-Imino-1,4-dimethyl-6-oxohexahydropyrimidin-4-yl) dibenzo[b,d]thiophene-2-carbonitrile], the 50% inhibitory concentration (IC50) is above 0.3 µM.

As to `COCC#Cc1ccc2sc3ccc([C@]4(C)CC(=O)N(C)C(=N)N4)cc3c2c1` [Example 86, (S)-2-Amino-6-(8-(3-methoxyprop-1-yn-1-yl)dibenzo[b,d]thiophen-2-yl)-3,6-dimethyl-5,6-dihydropyrimidin-4(3H)-one], the half-inhibitory concentration (IC50) was found to be 0.218 µM.

For the compound `CN1C(=N)N[C@](C)(c2ccc3sc4ccc(C#CCO)cc4c3c2)CC1=O` [Example 87, (S)-2-Amino-6-(8-(3-hydroxyprop-1-yn-1-yl)dibenzo[b,d]thiophen-2-yl)-3,6-dimethyl-5,6-dihydropyrimidin-4(3H)-one], the IC50 came to 0.017 µM.

As for `CN1C(=N)N[C@](C)(c2ccc3sc4ccc(Br)cc4c3c2)CC1=O` [Example 88, (S)-6-(8-Bromodibenzo[b,d]thiophen-2-yl)-2-imino-3,6-dimethyltetrahydro-pyrimidin-4(1H)-one], the IC50 was above 0.3 µM.

`CCCc1ccc2sc3ccc([C@]4(C)CC(=O)N(C)C(=N)N4)cc3c2c1` [Example 89, (S)-2-Imino-3,6-dimethyl-6-(8-propyl-dibenzo[b,d]thiophen-2-yl)tetrahydro-pyrimidin-4(1H)-one]: the IC50 was above 0.3 µM.

As to `CN1C(=N)N[C@](C)(c2ccc3sc4ccc(C5CC5)cc4c3c2)CC1=O` [Example 90, (S)-6-(8-Cyclopropyldibenzo[b,d]thiophen-2-yl)-2-imino-3,6-dimethyl-tetrahydropyrimidin-4(1H)-one], the IC50 was 0.078 µM.

Regarding `CN1C(=N)N[C@](C)(c2ccc3sc4ccc(C(N)=O)cc4c3c2)CC1=O` [Example 91, (S)-8-(2-Imino-1,4-dimethyl-6-oxohexahydropyrimidin-4-yl)dibenzo [b,d]thiophene-2-carboxamide], the IC50 was above 0.3 µM.

On to `CCN(CC)c1ccc2sc3ccc([C@]4(C)CC(=O)N(C)C(=N)N4)cc3c2c1` [Example 92, (S)-6-(8-(Diethylamino)dibenzo[b,d]thiophen-2-yl)-2-imino-3,6-dimethyl-tetrahydropyrimidin-4(1H)-one], for which the IC50 was above 0.3 µM.

With `CN1C(=N)N[C@](C)(c2ccc3sc4ccc(C(F)(F)F)cc4c3c2)CC1=O` [Example 94, (S)-2-Amino-3,6-dimethyl-6-(8-(trifluoromethyl)dibenzo[b,d]thiophen-2-yl)-5,6-di hydropyrimidin-4(3H)-one], the IC50 was found to be 0.081 µM.

In the case of `CC#Cc1ccc2sc3ccc([C@]4(C5CC5)CC(=O)N(C)C(=N)N4)cc3c2c1` [Example 99, (R)-6-Cyclopropyl-2-imino-3-methyl-6-(8-(prop-1-yn-1-yl)dibenzo[b,d]thiophen-2-yl)tetrahydropyrimidin-4(1H)-one], the IC50 was above 0.3 µM.

Turning to `CC#Cc1ccc2sc3ccc([C@@]4(C)NC(=N)OCC4(F)F)cc3c2c1` [Example 100, (R)-5,5-Difluoro-4-methyl-4-(8-(prop-1-yn-1-yl)dibenzo[b,d]thiophen-2-yl)-1,3-oxazinan-2-imine], the half-inhibitory concentration (IC50) was found to be 0.202 µM.

As for `CC#Cc1ccc2sc3ccc([C@]4(C)CS(=O)(=O)N(C)C(=N)N4)cc3c2c1` [Example 104, (R)-3-Imino-2,5-dimethyl-5-(8-(prop-1-yn-1-yl)dibenzo[b,d]thiophen-2-yl)-1,2,4-thiadiazinane 1,1-dioxide], the IC50 is above 0.3 µM.

Consider `CC#Cc1ccc2sc3ccc([C@]4(C)CC(=O)N(CC(F)F)C(=N)N4)cc3c2c1` [Example 105, (S)-3-(2,2-Difluoroethyl)-2-imino-6-methyl-6-(8-(prop-1-yn-1-yl)dibenzo [b,d]thiophen-2-yl)tetrahydropyrimidin-4(1H)-one], for which the half-inhibitory concentration (IC50) was above 0.3 µM.

`CC#Cc1ccc2sc3ccc([C@]4(C)CC(=O)N(CCOC)C(=N)N4)cc3c2c1` [Example 106, (S)-2-Imino-3-(2-methoxyethyl)-6-methyl-6-(8-(prop-1-yn-1-yl)dibenzo[b,d]thiophen-2-yl)tetrahydropyrimidin-4(1H)-one]: the IC50 is above 0.3 µM.

Turning to `CC#Cc1ccc2sc3ccc([C@]4(C)CN(C)C(=O)C(=N)N4)cc3c2c1` [Example 115, (R)-3-Imino-1,5-dimethyl-5-(8-(prop-1-yn-1-yl)dibenzo[b,d]thiophen-2-yl) piperazin-2-one], the half-maximal inhibitory concentration (IC50) was above 0.3 µM.
